Laboratory results reported in PubChem BioAssay AID743417 (Broad Institute, 2014).
Inconclusive results are not listed. Active and inactive are the calls of the source.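 How the source made its calls: active means compounds lowering the luciferase signal with a fitted half-maximal dose at most twice their top valid dose (cut at about 30 µM in these data); inconclusive means flat fits with moderate signal loss, or poor fits; inactive means the rest.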

Test system: Clone20 osteoblast Shn3 3'UTR firefly luciferase, 24 h
Test: Shn3 3'UTR reporter inhibitors, dose response, cell-based, Clone20 osteoblasts, luminescence, dry powder, set 2 (AID 743417)

C=C1C(=O)C23C(O)C1CCC2C12CCCC(C)(COC(C)=O)C1C(O)C3(O)OC2 (stereo unspecified)
AC50: 771 nM

Cc1cc(C)c2sc(NNC(=O)c3ccc(S(=O)(=O)N4CCc5ccccc5C4)cc3)nc2c1
AC50: 1800 nM

Nc1cc(Cl)c2nonc2c1[N+](=O)[O-]
AC50: 5370 nM

COc1cccc(-n2c(C)nc3c(cnn3-c3ccc(Cl)cc3)c2=O)c1
AC50: 391 nM

CN(C)c1ccc(C=Cc2ccnc3c(O)cccc23)cc1
AC50: 1430 nM

CC1CCCC(NC(=O)c2cccc(S(=O)(=O)N3CCN(c4ccccc4)CC3)c2)C1C (stereo unspecified)
AC50: 3140 nM

Cc1cc(=O)oc2c3c(cc(OCC(=O)Nc4ccc(CCO)cc4)c12)OC(C)(C)CC3
AC50: > 70000 nM (inactive)

O=C(OCCOc1ccc(Cl)cc1)c1cc(S(=O)(=O)N2CCCCC2)ccc1N1CCOCC1
AC50: 1970 nM

COc1ccc(C(=O)C(CN2CCOCC2)c2ccccc2)cc1 (stereo unspecified)
AC50: 5590 nM

Cc1cc(C)c2nc(NNC(=O)c3ccc(S(=O)(=O)N4CC(C)CC(C)C4)cc3)sc2c1 (stereo unspecified)
AC50: 2280 nM

COc1cccc(NC(=O)c2nc(S(C)(=O)=O)ncc2Cl)c1
AC50: 834 nM

Cc1ccccc1C(=O)NC(=S)Nc1ccc(N2CCN(C(=O)c3ccccc3)CC2)cc1
AC50: 1880 nM

CC(=O)c1cccc(-c2csc3ncnc(Sc4nnnn4C)c23)c1
AC50: 4720 nM

COC(=O)C1CN(C#N)N(c2ccc(Cl)cc2)C12c1ccccc1-c1ccccc12 (stereo unspecified)
AC50: < 260 nM

CCOC(=O)C1(Cc2cccc(OC)c2)CCN(C/C=C/c2ccc(OC)cc2)CC1
AC50: 4750 nM

Cc1ccc(NC(=O)c2nc(S(=O)(=O)Cc3ccccc3C)ncc2Cl)cc1C
AC50: 486 nM

CC(CC(=O)N1CCN(c2cccc(Cl)c2)CC1)S(=O)(=O)c1ccc2c(c1)NC(=O)CO2 (stereo unspecified)
AC50: 3990 nM

Cc1cc2sc3ccc(C#CC4(O)CCCCC4)cc3c(=O)c2cc1C
AC50: < 260 nM

Cc1ccc(S(=O)(=O)N2CCC3(CC2)OCCN3S(=O)(=O)c2c(C)cc(C)cc2C)cc1
AC50: 6810 nM

CCCc1ccc(C(=O)NNc2cc(Cl)ccc2Cl)cc1
AC50: 2590 nM

CCCCNc1c(-c2ccc(OC)c(SC3CCCCC3)c2)nc2ccc(C)cn12
AC50: 3680 nM

C[C@]12CC[C@H](O)CC1=CCC1C2CC[C@@]2(C)C1CCC21OCCO1 (stereo partly specified)
AC50: 27300 nM

Cc1ccc([N+](=O)[O-])cc1NC(=O)Nc1cccc(F)c1
AC50: 2210 nM

O=[N+]([O-])c1c(Nc2cccc(O)c2)cc(Cl)c2nonc12
AC50: 683 nM

O=[N+]([O-])c1ccc2ncnc(N3CCN(Cc4ccc5c(c4)OCO5)CC3)c2c1
AC50: 2730 nM

CCc1ccc(CNCc2ccc(OCC(O)CN(C)Cc3ccccc3)cc2)nc1 (stereo unspecified)
AC50: 4430 nM

O=C(CSc1nnc(-c2cccnc2)s1)Nc1ccnc2ccccc12
AC50: 661 nM

COc1ccc(NC(=O)/C(Cl)=C(/Cl)S(=O)Cc2ccc(Cl)cc2)cn1 (stereo unspecified)
AC50: 1340 nM

CN1/C(=C\C=C2/SC(=S)NC2=O)C(C)(C)c2ccccc21
AC50: 2600 nM

O=C(Nc1ccc2oc(-c3ccncc3)nc2c1)c1ccc([N+](=O)[O-])o1
AC50: 18600 nM

Cc1ccccc1C(=O)N1CCN(c2ccc(NC(=O)c3ccc4c(c3)OCCO4)cc2)CC1
AC50: 2170 nM

COc1ccccc1-c1cc(C(F)(F)F)nc(S(C)(=O)=O)n1
AC50: 4060 nM

CCN(CC)S(=O)(=O)c1ccc(N2CCOCC2)c(NC(=O)c2nn(C(C)C)c(=O)c3ccccc23)c1
AC50: 15600 nM

CCn1c(=NC(=O)CS(=O)(=O)c2ccccc2)sc2cccc(OC)c21
AC50: 1680 nM

O=C(CSc1c2c(nc3ccc(Cl)cc13)CCCC2)NCc1ccco1
AC50: 5710 nM

Cc1ccc(NN2C(=O)C=C(c3ccc(Cl)cc3)C2=O)cc1
AC50: 6530 nM

CCCOc1ccccc1N/C(=N/c1nc(C)cc(C)n1)NC(=O)COc1ccc(OC)cc1
AC50: 3240 nM

CCOc1ccc(S(=O)(=O)NCc2ccncc2)cc1
AC50: 261 nM

O=C(c1cc2sccc2n1Cc1ccccc1)N1CCN(c2nc3ccccc3s2)CC1
AC50: 1090 nM

Cc1ccc(-c2nc(-c3ccccn3)no2)cc1
AC50: 1960 nM

COCCn1c(SCC(=O)/C=C2\N(C)c3ccccc3C2(C)C)nnc1-c1ccncc1
AC50: 2650 nM

COc1cc(NC(=O)NCc2ccco2)ccc1-c1ccc(NC(=O)NCc2ccco2)cc1OC
AC50: 3190 nM

OC(c1cc(-c2ccc(C(F)(F)F)cc2)nc(C(F)(F)F)c1)C1CCCCN1 (stereo unspecified)
AC50: 4730 nM

CN(C)S(=O)(=O)c1cccc(N=c2scc(-c3ccc4c(c3)NC(=O)CO4)n2CC2CCCO2)c1 (stereo unspecified)
AC50: 14000 nM

CCS(=O)(=O)c1ncc(Cl)c(C(=O)Nc2ccc(S(=O)(=O)N(C)c3ccccc3)cc2)n1
AC50: 308 nM

COc1ccc(C2=Nn3c([n+](C)c4ccccc43)SC2)cc1
AC50: 1160 nM

Cc1cc(Sc2ncnc(N)c2[N+](=O)[O-])ncn1
AC50: 5700 nM

CC(O)CC(=O)OC[C@]12CC[C@H]3[C@@](C)(CC[C@H]4C(C)(C)CCC[C@]34C)[C@@H]1CC(C1=CC(=O)OC1O)O2 (stereo partly specified)
AC50: 3750 nM

CCCCC(=O)NC(c1ccccc1Cl)c1ccc2cccnc2c1O (stereo unspecified)
AC50: 1120 nM

Cn1c(SCc2ccc(F)cc2Cl)nc2ccccc2c1=O
AC50: 8650 nM

O=c1oc2ccccc2cc1-c1cn2ccccc2n1
AC50: 3640 nM

CCCCC(=O)NC(c1ccccc1OC)c1ccc2cccnc2c1O (stereo unspecified)
AC50: 1190 nM

CC[C@@H](C(=O)[C@@H](C)[C@@H](O)[C@H](C)CCc1ccc(C)c(O)c1C(=O)O)[C@H]1O[C@](CC)([C@H]2CC[C@](O)(CC)[C@H](C)O2)C[C@@H]1C
AC50: 7930 nM

COc1cccc(CN(C)C(=O)c2ccc(OCC(=O)Nc3cccc(C(F)(F)F)c3)c(OC)c2)c1
AC50: 4930 nM

Cn1c(=O)c2c(nc(NCc3ccco3)n2C/C=C/c2ccccc2)n(C)c1=O
AC50: 1080 nM

C=C1C(=O)O[C@H]2[C@H]1[C@H](OC(=O)CC(=O)O[C@@H]1C[C@@H](C)[C@@H]3C=CC(=O)[C@@]3(C)[C@H]3OC(=O)C(=C)[C@H]13)C[C@@H](C)[C@H]1C=CC(=O)[C@]12C
AC50: 1540 nM

CCC(C)(O)C(=O)OC1C(=O)OC2CC3C(C)=CC(=O)C(O)C3(C)C3C4(O)OCC23C1C(C)C4O (stereo unspecified)
AC50: 866 nM

O=C(/C=C/Sc1ncn[nH]1)c1ccc(Cl)cc1
AC50: 9760 nM

CC[C@H]1CN2CCc3cc(OC)c(OC)cc3C2C[C@@H]1C[C@H]1NCCc2cc(OC)c(OC)cc21 (stereo partly specified)
AC50: < 260 nM

CC(=O)Nc1nc(C)c(-c2csc(Nc3cccc(C(C)=O)c3)n2)s1
AC50: 1670 nM

COc1ccc(C(NC(=O)c2cccnc2)c2cc(Cl)c3cccnc3c2O)cc1OC (stereo unspecified)
AC50: 1880 nM

Cc1ccc(NC(=O)c2cc3ccccc3oc2=O)cc1S(=O)(=O)N(C)C
AC50: 1290 nM

Cn1nnnc1Sc1ncnc2scc(Br)c12
AC50: 6510 nM

COC(=O)C1=C(C(=O)OC)[C@@H]2N(Cc3ccccc3)c3ccccc3[C@@]23C[C@@H](C(=O)OC)N(C(=O)c2ccc(Br)cc2)C3=N1
AC50: 8520 nM

CCCc1nc([N+](=O)[O-])c(S(=O)(=O)c2ccccc2)n1CC(C)C
AC50: 7390 nM

O=C(/C=C/c1ccccc1)NC(NC(=S)Nc1ccc(Cl)cc1)C(Cl)(Cl)Cl (stereo unspecified)
AC50: 5130 nM

CN(C)c1ccc(/C=C/c2ccc3ccccc3n2)cc1
AC50: 1330 nM

CCCCNc1c(-c2ccc(OC)c(Sc3ccc(OC)cc3)c2)nc2ccccn12
AC50: 821 nM

C[n+]1c2n(c3ccccc31)N=C(c1cc(C(C)(C)C)c(O)c(C(C)(C)C)c1)CS2
AC50: 5920 nM

CN1CCN(C(c2ccc(Br)cc2)c2cc(Cl)c3cccnc3c2O)CC1 (stereo unspecified)
AC50: 3610 nM

O=C(Nc1ccc2nc3n(c(=O)c2c1)CCCC3)c1cc([N+](=O)[O-])ccc1F
AC50: 361 nM

Cc1ccc(S(=O)(=O)N2C[C@@H]3CCCC[C@@H]3[C@@H](C)[C@H]2c2cn(Cc3ccccc3)c3ncccc23)cc1
AC50: 1920 nM

CN1OC[C@@H]2CN[C@H](c3ccc(-c4cc5ccccc5o4)cc3)C[C@@H]21
AC50: < 260 nM

CCC(C)C1NC(=O)C(NC(=O)C(CC(C)C)N(C)C(=O)C2CCCN2C(=O)C(C)O)C(C)OC(=O)C(Cc2ccc(OC)cc2)N(C)C(=O)C2CCCN2C(=O)C(CC(C)C)NC(=O)[C@H](C)C(=O)[C@H](C(C)C)OC(=O)CC1O (stereo partly specified)
AC50: < 260 nM

CN(c1cccc(Cl)c1)S(=O)(=O)c1cccc(C(=O)NCc2ccncc2)c1
AC50: < 260 nM

Oc1ccc(-c2csc(Nc3cccc4ccccc34)n2)cc1O
AC50: 1580 nM

Cc1sc2ncnc(NC3CCN(Cc4ccccc4)CC3)c2c1C
AC50: 1020 nM

COC1CC2C=C(C)C=CC=CC(=O)NC(c3ccccc3)CC=CCCC(O)CC(=O)C2=C1O (stereo unspecified)
AC50: 629 nM

Cc1nc2ccccn2c1C(=O)NC1CCCc2ccccc21 (stereo unspecified)
AC50: 2470 nM

CN(CCO)c1cc(Sc2nc3ccccc3s2)c2nonc2c1[N+](=O)[O-]
AC50: 1550 nM

O=S(=O)(NCc1ccncc1)c1ccc(F)c(F)c1
AC50: 2090 nM

CC(C)Oc1ccc(S(=O)(=O)N2CCCCC2)cc1NC(=O)CN1CCCC1c1cccs1 (stereo unspecified)
AC50: 7880 nM

Cc1cccc(NC(=O)CSc2nc3ccccc3c(=O)n2C)c1C
AC50: 2980 nM

CN1CCN(c2ccc(-c3ccc4ccccc4n3)cc2)CC1
AC50: 2730 nM

NC(CCc1ccccc1)c1csc(NC(=O)Nc2ccccc2Oc2ccccc2)n1 (stereo unspecified)
AC50: 7180 nM

Cc1ccc2[nH]c3c(N4CCN(Cc5ccccc5)CC4)ncnc3c2c1
AC50: 4180 nM

Cc1ccc(S(=O)(=O)NCc2ccncc2)cc1C
AC50: 585 nM

Cc1cc(NC(=O)CCCS(=O)(=O)c2nc(-c3cccs3)cc(C(F)(F)F)n2)no1
AC50: 1730 nM

CN(C)CCN1C(=O)c2cccc3cc([N+](=O)[O-])cc(c23)C1=O
AC50: 1110 nM

O=C(c1ccc(Cn2c(=S)[nH]c3ccccc3c2=O)cc1)N1CCN(c2ccccn2)CC1
AC50: 6340 nM

CC(NCc1ccc(OCc2ccc(Cl)cc2)cc1)C(O)c1ccccc1 (stereo unspecified)
AC50: 10900 nM

O=C(Nc1ccc(Cl)cc1)c1cc(S(=O)(=O)N2CCOCC2)cs1
AC50: 4230 nM

CCOC(=O)N1CCN(CC(c2ccccc2)c2ccccc2)CC1
AC50: 14100 nM

CNS(=O)(=O)c1cccc(C(=O)OCc2cc(C(C)=O)ccc2OC)c1
AC50: 11200 nM

COc1ccc(-c2cc(N)n(S(=O)(=O)c3c(F)c(F)c(F)c(F)c3F)n2)cc1OC
AC50: 896 nM

c1ccc(-c2noc(-c3ccc4ccccc4c3)n2)nc1
AC50: 1980 nM

O=C(Nc1cccc(C(F)(F)F)c1)c1sc(Cl)nc1C(F)(F)F
AC50: 9060 nM

O=C(NCc1ccccc1C(F)(F)F)c1cccc2c1C(=O)c1ccc(N3CCC(N4CCCCC4)CC3)cc1S2(=O)=O
AC50: 21200 nM

O=C(NCc1ccc2c(c1)OCO2)c1nc(S(=O)(=O)Cc2ccccc2F)ncc1Cl
AC50: 5190 nM

COc1ccccc1-c1cc(C(F)(F)F)nc(S(=O)(=O)CCCC(=O)N2CCCCC2C)n1 (stereo unspecified)
AC50: 2650 nM

CCN(CC)S(=O)(=O)c1ccc(S(=O)(=O)Nc2c(C)nn(C)c2C)cc1
AC50: 2240 nM
